Assay [1] is described as follows: Cytotoxicity against human CNE2 cells after 72 hrs by MTT assay. The format is functional, cell-based, CNE-2. In general terms: Tetrazolium dyes change colour on reduction, which living cells bring about.
The test system of a further assay is KB. The experiment in a line: Cytotoxicity against human KB cells after 72 hrs by MTT assay. The format is functional, cell-based.

Values joined by “and” are separate entries in the source; they are usually repeats but may differ in a detail not shown here. Identical values can stand only once. A value given as a limit tells only on which side of the number the result lay.

By IC50 is commonly meant the concentration needed to halve the response being measured. With `COc1ccc(NC(=S)NC(=O)c2cccc(C(=O)NC(=S)Nc3ccc(OC)cc3)c2)cc1`, the 50% inhibitory concentration (IC50) in assay [1] (Homo sapiens, CNE-2, 72 h) is 30.3 µM; in the assay on KB (Homo sapiens, KB, 72 h), more than 50 µM.
On to `O=c1[nH]cc(F)c(=O)[nH]1` [FLUOROURACIL], for which the IC50 in the assay with KB (Homo sapiens, KB, 72 h) came out at 15.9 µM.
Regarding `O=C(NC(=S)Nc1ccc(O)cc1)c1cccc(C(=O)NC(=S)Nc2ccc(O)cc2)c1`, the IC50 in assay [1] (Homo sapiens, CNE-2, 72 h) was 16.6 µM; in the assay with KB (Homo sapiens, KB, 72 h), 20 µM.
In the case of `O=C(NC(=S)Nc1ccccc1Cl)c1cccc(C(=O)NC(=S)Nc2ccccc2Cl)c1`, the half-maximal inhibitory concentration (IC50) in assay [1] (Homo sapiens, CNE-2, 72 h) is more than 50 µM; in the assay with KB (Homo sapiens, KB, 72 h) it was 38.8 µM.
On to `O=C(NC(=S)Nc1ccc(F)cc1)c1cccc(C(=O)NC(=S)Nc2ccc(F)cc2)c1`, for which the 50% inhibitory concentration (IC50) came out at 33 µM in assay [1] (Homo sapiens, CNE-2, 72 h) and 43.2 µM in the assay on KB (Homo sapiens, KB, 72 h).
As to `O=C(NC(=S)Nc1cccc(Cl)c1)c1cccc(C(=O)NC(=S)Nc2cccc(Cl)c2)c1`, the IC50 is 16.3 µM in assay [1] (Homo sapiens, CNE-2, 72 h) and 12 µM in the assay on KB (Homo sapiens, KB, 72 h).
Turning to `O=C(NC(=S)Nc1ccccc1)c1cccc(C(=O)NC(=S)Nc2ccccc2)c1`, the IC50 in assay [1] (Homo sapiens, CNE-2, 72 h) was more than 50 µM; in the assay on KB (Homo sapiens, KB, 72 h), more than 50 µM.
For `O=C(NC(=S)Nc1ccc(Br)cc1)c1cccc(C(=O)NC(=S)Nc2ccc(Br)cc2)c1`, the half-maximal inhibitory concentration (IC50) in assay [1] (Homo sapiens, CNE-2, 72 h) was found to be 32.7 µM; in the assay with KB (Homo sapiens, KB, 72 h), 23.2 µM.
On to `O=C(NC(=S)Nc1cccc(Br)c1)c1cccc(C(=O)NC(=S)Nc2cccc(Br)c2)c1`, for which the 50% inhibitory concentration (IC50) in assay [1] (Homo sapiens, CNE-2, 72 h) was 18.6 µM; with KB (Homo sapiens, KB, 72 h) it was 15.2 µM.
As for `Cc1ccccc1NC(=S)NC(=O)c1cccc(C(=O)NC(=S)Nc2ccccc2C)c1`, the 50% inhibitory concentration (IC50) in assay [1] (Homo sapiens, CNE-2, 72 h) was more than 50 µM; in the assay with KB (Homo sapiens, KB, 72 h) it was more than 50 µM.
As to `O=C(NC(=S)Nc1ccccc1C(F)(F)F)c1cccc(C(=O)NC(=S)Nc2ccccc2C(F)(F)F)c1`, the IC50 in assay [1] (Homo sapiens, CNE-2, 72 h) worked out at 18.5 µM; in the assay on KB (Homo sapiens, KB, 72 h), 26.1 µM.
Regarding `O=C(NC(=S)Nc1ccccc1Br)c1cccc(C(=O)NC(=S)Nc2ccccc2Br)c1`, the half-inhibitory concentration (IC50) is more than 50 µM in assay [1] (Homo sapiens, CNE-2, 72 h) and 47.1 µM with KB (Homo sapiens, KB, 72 h).
As to `O=C(NC(=S)Nc1ccccc1O)c1cccc(C(=O)NC(=S)Nc2ccccc2O)c1`, the half-maximal inhibitory concentration (IC50) in assay [1] (cne-2) was 9.91 µM and > 50 µM; with KB (kb) it was 10.7 µM and > 50 µM.
With `O=C(NC(=S)Nc1ccccc1F)c1cccc(C(=O)NC(=S)Nc2ccccc2F)c1`, the IC50 in assay [1] (Homo sapiens, CNE-2, 72 h) was 38.6 µM; in the assay with KB (Homo sapiens, KB, 72 h) it was 45 µM.
`Cc1ccc(NC(=S)NC(=O)c2cccc(C(=O)NC(=S)Nc3ccc(C)cc3)c2)cc1`: the IC50 worked out at 33 µM in assay [1] (Homo sapiens, CNE-2, 72 h) and 15.3 µM in the assay with KB (Homo sapiens, KB, 72 h).
In the case of `O=C(NC(=S)Nc1ccc([N+](=O)[O-])cc1)c1cccc(C(=O)NC(=S)Nc2ccc([N+](=O)[O-])cc2)c1`, the IC50 was more than 50 µM in assay [1] (Homo sapiens, CNE-2, 72 h) and 35.7 µM with KB (Homo sapiens, KB, 72 h).
For `O=C(NC(=S)Nc1ccc(Cl)cc1)c1cccc(C(=O)NC(=S)Nc2ccc(Cl)cc2)c1`, in that order: 15.7 µM and 13.7 µM.

(Values after ChEMBL document CHEMBL1667856, “Efficient synthesis and biological evaluation of 1,3-benzenedicarbonyl dithioureas” (Bioorg Med Chem Lett, 2011).)
